In patent US12678488B2, “Batch management method for improving farrowing rate or number of piglets born alive in swine” (priority 2024, dated 2026):
“Also recorded” adds a separate entry of the source. Marks after values point to notes of the source that are not given here.

Columns and labels:
[1] = system: batch farrowing sows; assay: Previous experiment of feeding batch farrowing sows with different doses at different times; assay type: in vivo, pigs; details: application dosage and oral administration time of clinical medicine and bovine superovulation
Description: In the disclosure, the administration dosage of 1-[bis(4-cyanophenyl)alkyl]-1,2,4-triazole is generally 10-50 μg/kg·BW administered in a single dose, preferably 12-30 μg/kg·BW administered in a single dose, further preferably 12-25 μg/kg·BW administered in a single dose, e.g., 13, 14, 15, 16, 17, 18, 19, 20, 21, 22, or 23 μg/kg·BW. Alternatively, it can be administered in two doses. As long as the total administration dosage of the two doses is within a range of 10-50 μg/kg·BW, the dosage of each administration is not particularly limited, for example, each administration dosage is generally within a range of 1-40 μg/kg·BW. In the case of two doses, the time interval between the two instances of administration is 8-30 hours, preferably 9-28 hours, more preferably 10-26 hours, further preferably 12-25 hours, 14-24 hours, etc. If the administration dosage is too high, it tends to affect the estrus and ovulation in animals and even cause ovarian cysts. The administration dosage of the disclosure is important.

[2] = system: Landrace x Large White reserve sows; assay: B-Scan ultrasonic monitoring of follicles: ovulation time and ovarian cyst in gilts (Example 2); assay type: in vivo, pigs
Source text: Landrace x Large White reserve sows, about 230 days old, were randomly divided into a batch farrowing with FTAI and batch farrowing with FTAI combined with different doses of 1-[bis(4-cyanophenyl)methyl]-1,2,4-triazole groups, and during the experiment, the experimental sows in each group were fed regularly and gained free access to water according to the requirements of feeding management in the farm.
Referring to the dosage of 1-[bis(4-cyanophenyl)methyl]-1,2,4-triazole in clinical medicine and using standard weight-dosage conversion, the recommended dosage of 1-[bis(4-cyanophenyl)methyl]-1,2,4-triazole for sows was 50-150 μg/kg·BW/day, orally for consecutive 5 days, as derived by conversion. In addition, the applicant previously studied uniparous cows, and in the ovulation induction scheme, the reference dosage of 1-[bis(4-cyanophenyl)methyl]-1,2,4-triazole was 60-200 μg/kg·BW, administered in a single dose; furthermore, by means of conversion in conjunction with the dosage for model animals (mice) previously in the laboratory, various dosages were designed. The treatment methods of hormones and drugs for sows in each group were as follows: • batch farrowing with FTAI: the sows were fed with an altrenogest oral solution at 20 mg/animal at the same time every day, for 18 days; PMSG at 1000 IU/animal was injected intramuscularly 42 h after the last feeding with altrenogest, GnRH at 100 μg/animal was injected intramuscularly 80 h after the injection of PMSG, a first timed insemination was performed 24 h after the injection of GnRH, and a second timed insemination was performed 16 h after the first insemination.
(§1) Treatment group 1: the hormone treatment and mating schemes for gilts were the same as FTAI. The difference lay in that PMSG at 1000 IU/gilt was injected intramuscularly 42 h after the last feeding with altrenogest, and 1-[bis(4-cyanophenyl)methyl]-1,2,4-triazole at 12 μg/kg·BW/day was administered orally 8 h after the injection of PMSG, for 1 day.
as §1, with “2:” for “1:”, “2 days.” for “1 day.”
as §1, with “3:” for “1:”, “20” for “12”
as §1, with “4:” for “1:”, “sows” for “gilts”, “1-[bis (4-cyanophenyl)methyl]-1,2,4-triazole” for “1-[bis(4-cyanophenyl)methyl]-1,2,4-triazole”, “20” for “12”, “2 days.” for “1 day.”
as §1, with “5:” for “1:”, “IU/animal” for “IU/gilt”, “20” for “12”, “3 days.” for “1 day.”
as §1, with “6:” for “1:”, “IU/animal” for “IU/gilt”, “20” for “12”, “5 days.” for “1 day.”
Treatment group 7: the hormone treatment and mating schemes for gilts were the same as FTAI. […]

[3] = 80 and 160 μg/kg·BW/day for 5 consecutive days (treatment groups 9 and 10)
[4] = Example 2 Treatment group 1: 12 μg/kg·BW/day orally, 1 day, gilts
[5] = Example 2 Treatment group 2: 12 μg/kg·BW/day orally, 2 days, gilts
[6] = Example 2 Treatment group 3: 20 μg/kg·BW/day orally, 1 day, gilts
[7] = Example 2 Treatment group 4: 20 μg/kg·BW/day orally, 2 days, gilts
[8] = Example 2 Treatment group 5: 20 μg/kg·BW/day orally, 3 days, gilts
[9] = Example 2 Treatment group 6: 20 μg/kg·BW/day orally, 5 days, gilts
[10] = Example 2 Treatment group 7: 40 μg/kg·BW/day orally, 1 day, gilts
[11] = Example 2 Treatment group 8: 40 μg/kg·BW/day orally, 5 days, gilts
[12] = Example 2 Treatment group 9: 80 μg/kg·BW/day orally, 5 days, gilts
[13] = Example 2 Treatment group 10: 160 μg/kg·BW/day orally, 5 days, gilts
[14] = gilts, with the increase of the dosage
[15] = low-dose, batch farrowing with FTAI

N#Cc1ccc(C(c2ccc(C#N)cc2)n2cncn2)cc1 [1-[bis(4-cyanophenyl)methyl]-1,2,4-triazole]
problems caused in sows [1]: recessive estrus, ovarian cyst, anovulation, and pregnancy failure | ovarian cyst [2, 3]: had a cyst problem | ovulation for 10 days after stopping taking altrenogest [2, 3]: did not ovulate | Cyst ratio (%) [2, 4]: 0.00^b % | Interval from stopping taking Altrenogest to ovulation (h) [2, 4]: 170.13 ± 3.87^a h | Number of animals with ovarian cyst [2, 4]: 0 | Number of animals with ovulation [2, 4]: 27 | Cyst ratio (%) [2, 5]: 0.00^b % | Interval from stopping taking Altrenogest to ovulation (h) [2, 5]: 172.15 ± 3.34^a h | Number of animals with ovarian cyst [2, 5]: 0 | Number of animals with ovulation [2, 5]: 23 | Cyst ratio (%) [2, 6]: 0.00^b % | Interval from stopping taking Altrenogest to ovulation (h) [2, 6]: 169.57 ± 2.19^a h | Number of animals with ovarian cyst [2, 6]: 0 | Number of animals with ovulation [2, 6]: 22 | Cyst ratio (%) [2, 7]: 0.00^b % | Interval from stopping taking Altrenogest to ovulation (h) [2, 7]: 194.25 ± 2.96^b h | Number of animals with ovarian cyst [2, 7]: 0 | Number of animals with ovulation [2, 7]: 21 | Cyst ratio (%) [2, 8]: 11.53^c % | Interval from stopping taking Altrenogest to ovulation (h) [2, 8]: 177.79 ± 4.75^a h | Number of animals with ovarian cyst [2, 8]: 3 | Number of animals with ovulation [2, 8]: 24 | Cyst ratio (%) [2, 9]: 15.38^c % | Interval from stopping taking Altrenogest to ovulation (h) [2, 9]: 187.67 ± 3.69^b h | Number of animals with ovarian cyst [2, 9]: 4 | Number of animals with ovulation [2, 9]: 20 | Cyst ratio (%) [2, 10]: 11.53^c % | Interval from stopping taking Altrenogest to ovulation (h) [2, 10]: 191.50 ± 5.74^b h | Number of animals with ovarian cyst [2, 10]: 3 | Number of animals with ovulation [2, 10]: 22 | Cyst ratio (%) [2, 11]: 79.17^c % | Interval from stopping taking Altrenogest to ovulation (h) [2, 11]: 210.00 ± 2.65^b h | Number of animals with ovarian cyst [2, 11]: 19 | Number of animals with ovulation [2, 11]: 4 | Cyst ratio (%) [2, 12]: 100.00^c % | Number of animals with ovarian cyst [2, 12]: 24 | Number of animals with ovulation [2, 12]: 0 | Cyst ratio (%) [2, 13]: 100.00^c % | Number of animals with ovarian cyst [2, 13]: 24 | Number of animals with ovulation [2, 13]: 0 | ovulation time ([2]; gilts, treatment groups 1, 2, 3, and 5, compared with batch farrowing with FTAI): no significant difference | number of ovarian cysts [2, 14]: increased | time from stopping taking altrenogest to ovulation [2, 14]: prolonged | ovarian cysts ([2]; high-dose): caused ovarian cysts | ovulation in sows ([2]; high-dose): inhibited | ovarian cyst [2, 15]: no ovarian cyst was caused | ovulation time [2, 15]: no significant change | ovarian cyst, B-scan ultrasonic inspection ([2]; sows, high-dose 80 μg/kg·BW (FIG. 5)): presented as cyst; also recorded: ovarian cyst is presented | ovulation, B-scan ultrasonic inspection ([2]; sows, high-dose 80 μg/kg·BW (FIG. 5), day 10 after stopping altrenogest): no ovulation was observed | ovulation, B-scan ultrasonic inspection ([2]; sows, low-dose 12 μg/kg·BW (FIG. 4)): ovulate normally
